Reference: patent US20070066646A1, “Compounds for Inhibiting Copper-Containing Amine Oxidases and Uses Thereof” (GENMEDICA THERAPEUTICS SL, priority 2005, published 2007)

Biological target: T1, Human SSAO (Homo sapiens, UniProt Q16853)
T1 construct: Human or mice adipose tissue homogenates, used as a source of SSAO activity; from tissue; host or cells: human adipose tissue homogenate
T1 sequence (Q16853 1-763): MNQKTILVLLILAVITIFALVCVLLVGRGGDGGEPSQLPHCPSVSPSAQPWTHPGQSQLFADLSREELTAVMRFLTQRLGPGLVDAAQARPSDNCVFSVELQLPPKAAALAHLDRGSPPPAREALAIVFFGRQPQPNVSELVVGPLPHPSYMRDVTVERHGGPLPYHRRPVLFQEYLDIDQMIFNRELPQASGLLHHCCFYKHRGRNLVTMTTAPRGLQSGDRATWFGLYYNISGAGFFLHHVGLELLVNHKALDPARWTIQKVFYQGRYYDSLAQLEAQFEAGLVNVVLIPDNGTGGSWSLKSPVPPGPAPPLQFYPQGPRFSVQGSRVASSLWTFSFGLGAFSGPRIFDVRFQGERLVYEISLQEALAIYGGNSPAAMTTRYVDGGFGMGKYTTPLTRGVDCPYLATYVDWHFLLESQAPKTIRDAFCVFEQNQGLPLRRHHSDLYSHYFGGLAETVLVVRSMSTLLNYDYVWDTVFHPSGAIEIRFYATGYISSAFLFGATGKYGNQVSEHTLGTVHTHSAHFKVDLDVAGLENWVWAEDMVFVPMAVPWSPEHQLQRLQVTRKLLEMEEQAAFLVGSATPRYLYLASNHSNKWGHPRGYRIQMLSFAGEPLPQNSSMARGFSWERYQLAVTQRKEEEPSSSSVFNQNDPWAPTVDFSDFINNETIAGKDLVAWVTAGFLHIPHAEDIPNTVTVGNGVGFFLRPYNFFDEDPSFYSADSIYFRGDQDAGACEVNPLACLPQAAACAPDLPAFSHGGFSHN
Assay: SSAO activity determination (H2O2 detection with horseradish peroxidase/Amplex Red, benzylamine as substrate)
Type: biochemical
Conditions: human adipose tissue homogenates as SSAO source, 20 min preincubation at 37° C., semicarbazide control subtracted
Experimental: SSAO Activity Determination:
All assays were performed at 37° C. with SSAO from human or mice adipose tissue. The enzyme activity was measured through detection of hydrogen peroxide formed by the oxidation of benzylamine. This method is based on the horseradish peroxidase catalyzed hydrogen peroxide oxidation of 10-acetyl-3,7-dihydroxyphenoxazine (Molecular Probes A-6550), that produces resorufin a highly fluorescent product (excitation, 545 nm; emission, 590 nm) (Zhou and Panchuk-Voloshina, 1997). Human or mice adipose tissue homogenates, used as a source of SSAO activity, were preincubated in 96 well microplates for 20 min at 37° C. in 180 μL of 200 mM Phosphate buffer and H2O2-detecting mixture containing horseradish peroxidase (final concentration 1 U/mL) and Amplex Red reagent (60 μM) and different concentrations of inhibitors when necessary. Catalytic reaction was initiated by addition of 20 μL of benzylamine as substrate at 10 mM for human homogenates giving final concentrations of 100 μM and 1 mM respectively. Fluorescence intensity of the samples was measured continuously during 1 h (excitation, 545 nm; emission, 590 nm) and H2O2 concentration was calculated from calibration curves generated by serial dilutions of standard H2O2. To evaluate the amount of H2O2 formed specifically via SSAO-mediated reaction, semicarbazide 100 μM was included in the control wells subjected to the same treatments and these values were subtracted from the total amount of H2O2 formed.
The inhibition was measured as % decrease of the signal compared to a control without inhibitor. Blank values in absence of substrates were subtracted from the fluorescence for each experimental condition. The IC50 shown in Table 1 were calculated with GraphPad Prism 4 program.

Compound | IC50
O=C(NO)C1Cc2ccccc2C1 [compound 2] | 1.1 ± 0.04 µM
O=C(CNC(=O)c1ccc(Br)cc1)NO [compound 3] | 0.1 ± 0.03 µM
O=C(NO)C(CO)NS(=O)(=O)c1ccc(-c2ccccc2)cc1 (stereo not shown) [compound 5] | 0.25 ± 0.02 µM
CC(O)C(NS(=O)(=O)c1ccc(-c2ccccc2)cc1)C(=O)NO (stereo not shown) [compound 6] | 0.3 ± 0.1 µM
NCC(NS(=O)(=O)c1ccc(-c2ccccc2)cc1)C(=O)NO (stereo not shown) [compound 7] | 1.9 ± 0.2 µM
CCCc1ccc(S(=O)(=O)NC(CO)C(=O)NO)cc1 (stereo not shown) [compound 8] | 0.066 ± 0.001 µM
CCCc1ccc(S(=O)(=O)NC(C(=O)NO)C(C)O)cc1 (stereo not shown) [compound 9] | 0.136 ± 0.04 µM
CCC(C)(C)c1ccc(S(=O)(=O)NC(CO)C(=O)NO)cc1 (stereo not shown) [compound 10] | 0.041 ± 0.008 µM
CCC(C)(C)c1ccc(S(=O)(=O)NC(C(=O)NO)C(C)O)cc1 (stereo not shown) [compound 11] | 0.004 ± 0.0005 µM
CCC(C)(C)c1ccc(S(=O)(=O)NCC(=O)NO)cc1 [compound 12] | 1.57 ± 0.175 µM
O=C(NO)C(CO)NS(=O)(=O)c1ccc2ccccc2c1 (stereo not shown) [compound 13] | 0.067 ± 0.001 µM
CC(O)C(NS(=O)(=O)c1ccc2ccccc2c1)C(=O)NO (stereo not shown) [compound 14] | 0.054 ± 0.007 µM
O=C(CNS(=O)(=O)c1ccc2ccccc2c1)NO [compound 15] | 0.217 ± 0.039 µM
O=C(CNS(=O)(=O)c1ccc2ccccc2c1)NO [compound 17] | 0.217 ± 0.039 µM
Cc1ccc(S(=O)(=O)NC(C(=O)NO)C(C)O)cc1 (stereo not shown) [compound 18] | 0.041 ± 0.001 µM
Cc1ccc(S(=O)(=O)NC(CN)C(=O)NO)cc1 (stereo not shown) [compound 19] | 0.14 ± 0.03 µM
CC(O)C(NS(=O)(=O)c1ccc2cccnc2c1)C(=O)NO (stereo not shown) [compound 20] | 0.789 ± 0.061 µM
CN(C)c1cccc2ccc(S(=O)(=O)NC(CO)C(=O)NO)cc12 (stereo not shown) [compound 21] | 0.097 ± 0.021 µM
CC(O)C(NS(=O)(=O)c1ccc2cccc(N(C)C)c2c1)C(=O)NO (stereo not shown) [compound 22] | 0.369 ± 0.071 µM
Cc1ccc(S(=O)(=O)NCc2ccc(C(=O)NO)cc2)cc1 [compound 23] | 0.7 ± 0.04 µM
Cc1ccc(C2(C(=O)NCc3ccc(C(=O)NO)cc3)CCCC2)cc1 [compound 24] | 0.334 ± 0.08 µM
O=C(CCc1ccccc1O)NCc1ccc(C(=O)NO)cc1 [compound 25] | 0.941 ± 0.026 µM
O=C(O)CCC(NC(=O)Cc1ccc(-c2ccccc2)cc1)C(=O)O (stereo not shown) [compound 26] | 0.125 ± 0.002 µM
Cc1ccc(C2(C(=O)NC(CCC(=O)NO)C(=O)O)CCCC2)cc1 (stereo not shown) [compound 27] | 0.214 ± 0.041 µM
O=C(O)CCC(NC(=O)CCCc1ccccc1)C(=O)O (stereo not shown) [compound 28] | 0.229 ± 0.092 µM
Cc1ccc(CCCC(=O)NC(CCC(=O)O)C(=O)O)cc1 (stereo not shown) [compound 29] | 0.259 ± 0.062 µM

More lines, now with the values ahead:

IC50 | Compound
0.165 ± 0.007 µM | O=C(O)CCC(NC(=O)c1cc2ccccc2[nH]1)C(=O)O (stereo not shown) [compound 30]
0.128 ± 0.03 µM | Cc1ccc(/C=C/C(=O)NC(CCC(=O)O)C(=O)O)cc1 (stereo not shown) [compound 31]
0.121 ± 0.047 µM | NC(=O)C1CCCN1C(=O)c1ccc(-c2ccccc2)cc1 (stereo not shown) [compound 32]
0.09 ± 0.002 µM | CC(C)(C)c1ccc(C(=O)N2CCCC2C(N)=O)cc1 (stereo not shown) [compound 33]
0.147 ± 0.044 µM | NC(=O)C1CCCN1C(=O)c1cc2ccccc2cc1O (stereo not shown) [compound 34]
0.16 ± 0.031 µM | NC(=O)C1CCCN1C(=O)c1ccc2ncccc2c1 (stereo not shown) [compound 35]
0.078 ± 0.024 µM | NC(=O)C1CCCN1C(=O)c1nccc2ccccc12 (stereo not shown) [compound 36]
0.18 ± 0.01 µM | CC(CCc1ccccc1)NC(=O)CCC(=O)NO (stereo not shown) [compound 37]
0.14 ± 0.01 µM | O=C(CCC(=O)Nc1ccccc1O)NO [compound 38]
0.39 ± 0.04 µM | CC(NC(=O)CCC(=O)NO)c1ccc2ccccc2c1 (stereo not shown) [compound 39]
0.202 ± 0.026 µM | Nc1ccc(C(=O)NCc2ccc(F)cc2)cc1O [compound 40]
0.25 ± 0.056 µM | Nc1ccc(C(=O)NCc2ccc3ccccc3c2)cc1O [compound 41]
0.173 ± 0.009 µM | Nc1ccc(C(=O)NCCOc2ccccc2)cc1O [compound 42]
0.337 ± 0.07 µM | CC(NC(=O)c1ccc(N)c(O)c1)c1ccc2ccccc2c1 (stereo not shown) [compound 43]
0.185 ± 0.031 µM | Nc1ccc(C(=O)NCCc2ccccc2)cc1O [compound 44]
0.146 ± 0.005 µM | Nc1ccc(C(=O)NCCCc2ccccc2)cc1O [compound 45]
0.401 ± 0.03 µM | Nc1ccc(C(=O)NCCCCc2ccccc2)cc1O [compound 46]
0.41 ± 0.063 µM | Nc1ccc(O)c(C(=O)NCc2ccccc2)c1 [compound 47]
0.074 µM | Nc1ccc(O)c(C(=O)NCc2ccccc2O)c1 [compound 48]
0.253 ± 0.002 µM | Nc1ccc(O)c(C(=O)NCc2ccc(F)cc2)c1 [compound 49]
0.577 ± 0.027 µM | COc1cc(CNC(=O)c2cc(N)ccc2O)cc(OC)c1 [compound 50]
0.477 ± 0.064 µM | Nc1ccc(O)c(C(=O)NCc2ccc3ccccc3c2)c1 [compound 51]
0.189 ± 0.016 µM | Nc1ccc(O)c(C(=O)NCCOc2ccccc2)c1 [compound 52]
0.618 ± 0.118 µM | Nc1ccc(O)c(C(=O)NCCc2ccccc2)c1 [compound 53]
0.575 ± 0.023 µM | Nc1ccc(O)c(C(=O)NCCCc2ccccc2)c1 [compound 54]
0.762 ± 0.06 µM | Nc1ccc(O)c(C(=O)NCCCCc2ccccc2)c1 [compound 55]
